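Where inhibition never reached the appropriate level, the endpoint shown equals the highest concentration tested. Otherwise, values were interpolated linearly from a five-concentration, 48-hour dose response in 96-well plates. TGI: total growth inhibition.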 Where a SMILES comes first, the peptide text is derived from it. The star is where a group is joined. Boc = CC(C)(C)OC(=O)*
Experiments:
Test in all cases: growth of human tumour cells (NCI), 48 h
MCF7 breast = system: MCF7 breast
TK-10 renal = system: TK-10 renal
HOP-62 NSCLC = system: HOP-62 NSCLC
PC-3 prostate = system: PC-3 prostate
HT29 colon = system: HT29 colon
EKVX NSCLC = system: EKVX NSCLC
HCT-116 colon = system: HCT-116 colon
M14 melanoma = system: M14 melanoma
OVCAR-8 ovarian = system: OVCAR-8 ovarian
SNB-19 CNS = system: SNB-19 CNS
SF-268 CNS = system: SF-268 CNS
SR leukemia = system: SR leukemia
OVCAR-5 ovarian = system: OVCAR-5 ovarian
NCI/ADR-RES ovarian = system: NCI/ADR-RES ovarian
SN12C renal = system: SN12C renal
HL-60(TB) leukemia = system: HL-60(TB) leukemia
SK-MEL-5 melanoma = system: SK-MEL-5 melanoma
A549 NSCLC = system: A549 NSCLC

Row | SMILES | TGI (MCF7 breast) | TGI (TK-10 renal) | TGI (HOP-62 NSCLC) | TGI (PC-3 prostate) | TGI (HT29 colon) | TGI (EKVX NSCLC) | TGI (HCT-116 colon) | TGI (M14 melanoma) | TGI (OVCAR-8 ovarian) | TGI (SNB-19 CNS) | TGI (SF-268 CNS) | TGI (SR leukemia) | TGI (OVCAR-5 ovarian) | TGI (NCI/ADR-RES ovarian) | TGI (SN12C renal) | TGI (HL-60(TB) leukemia) | TGI (SK-MEL-5 melanoma) | TGI (A549 NSCLC)
1 | CNC(=O)CNC(=O)C(NC(=O)CNC(=O)C1CCCN1C(=O)C(C)NC(=O)C(NC(=O)OC(C)(C)C)C(C)C)C(C)C (stereo not given) (Boc-VAPGVG-NHMe; configuration not given here) | > 100 µM | > 100 µM | > 100 µM | > 100 µM | > 100 µM | > 100 µM | > 100 µM | > 100 µM | > 100 µM | > 100 µM | > 100 µM | > 100 µM | > 100 µM | > 100 µM | > 100 µM | > 100 µM | – | –
2 | Cc1ccc(C)n1-n1c(Cc2ccc(Cl)cc2)n[nH]c1=O | > 100 µM | > 100 µM | > 100 µM | > 100 µM | > 100 µM | > 100 µM | > 100 µM | > 100 µM | > 100 µM | > 100 µM | > 100 µM | > 100 µM | > 100 µM | > 100 µM | > 100 µM | – | > 100 µM | > 100 µM
3 | CNc1cccc(-c2cc(=O)c3cc4c(cc3[nH]2)OCO4)c1 | > 100 µM | 77.5 µM | – | > 100 µM | 2.71 µM | – | > 100 µM | > 100 µM | – | > 100 µM | > 100 µM | > 100 µM | 97.8 µM | 0.568 µM | > 42.8 µM | 2.89 µM | 6.92 µM | > 91.8 µM
4 | CN1CCN(Cn2nc(-c3ccccc3)n(/N=C/c3ccc(-c4ccc(Cl)cc4Cl)o3)c2=S)CC1 | 38.6 µM | 29.7 µM | 30.5 µM | 22 µM | 36.3 µM | > 100 µM | 14.8 µM | 39.1 µM | 25.8 µM | – | 26.2 µM | 5.04 µM | 48 µM | 56.2 µM | – | 80.3 µM | 68.9 µM | –
5 | COc1cc(Br)cc2c1O[C@H]1C(=O)CC3CC21CCN3C (stereo not given in full) | > 100 µM | – | > 100 µM | > 100 µM | > 100 µM | > 100 µM | > 100 µM | > 100 µM | 71.7 µM | > 100 µM | > 100 µM | > 100 µM | > 100 µM | > 100 µM | – | 42.7 µM | > 100 µM | > 100 µM
6 | CC[C@H](C)[C@H](NC(=O)[C@H](Cc1ccc(O)cc1)NCC(F)(F)F)C(=O)OC(C)(C)C | 19.4 µM | 15.4 µM | 20.5 µM | 14.1 µM | 16.3 µM | 15.1 µM | 16.6 µM | 15.1 µM | 29.8 µM | 15.8 µM | 24.6 µM | 20.8 µM | 18 µM | 50 µM | 17.3 µM | – | 15.3 µM | 13 µM
7 | COc1cc(S(=O)(=O)Nc2ccc(-c3csc(/N=C\c4ccccc4O)n3)cc2)ccc1Cl | 59.7 µM | – | > 100 µM | > 100 µM | > 100 µM | > 100 µM | > 100 µM | > 100 µM | > 100 µM | > 100 µM | > 100 µM | 95.2 µM | > 100 µM | > 100 µM | > 100 µM | 98.6 µM | > 100 µM | > 100 µM
8 | Cc1ccc(S(=O)(=O)NN=C2C(C)CC(C(C)(C)C)CC2C)cc1 (stereo not given) | 38.6 µM | 65 µM | 31.6 µM | 37.9 µM | 32.8 µM | – | 34.1 µM | 26.9 µM | 59.8 µM | 66 µM | – | 62.2 µM | 31.5 µM | 82.1 µM | 32.7 µM | 52.7 µM | 31.3 µM | 32.7 µM
9 | CCN1CCC(O)(/C=C/c2cccc(C)c2)C(C(=O)/C=C/c2cccc(C)c2)C1 (stereo not given) | 6.44 µM | 3.92 µM | – | > 25.4 µM | 3.18 µM | 4.25 µM | 6.13 µM | 7.47 µM | 10.4 µM | 15.4 µM | 3.44 µM | > 100 µM | 6.98 µM | 5.99 µM | 7.04 µM | > 100 µM | 3.99 µM | 5.97 µM
10 | Cc1cc(N(C)C)ccc1N=Nc1ccc2ncccc2c1 | > 100 µM | 76.2 µM | – | > 100 µM | > 100 µM | > 100 µM | > 100 µM | > 100 µM | > 100 µM | 94 µM | > 100 µM | > 100 µM | > 100 µM | > 100 µM | > 100 µM | > 100 µM | 98.1 µM | > 100 µM
11 | Nc1ccc(-c2nnc(-c3c(Cl)c(Cl)c(Cl)c(Cl)c3-c3nc4ccc(C(=O)c5ccccc5)cc4[nH]3)o2)cc1 | 76.2 µM | 77.6 µM | 79.9 µM | 49.9 µM | 40.8 µM | 87.7 µM | 56.9 µM | 34.8 µM | > 100 µM | 67.4 µM | > 100 µM | 28.2 µM | 89 µM | 41 µM | 37.7 µM | – | 26.4 µM | > 100 µM
12 | Clc1ccc(-c2cn3c(nc4ccccc43)c(/C=C/c3cccs3)n2)cc1 | > 100 µM | > 100 µM | > 100 µM | > 100 µM | > 100 µM | – | > 100 µM | > 100 µM | – | > 100 µM | > 100 µM | > 100 µM | > 100 µM | > 100 µM | > 100 µM | > 100 µM | > 100 µM | > 100 µM
13 | CCOC(=O)c1sc2c(c1OC(=O)c1ccc(Cl)cc1Cl)c(=O)n(-c1ccccc1)c(=S)n2-c1ccccc1 | > 100 µM | > 100 µM | > 100 µM | > 100 µM | > 77.5 µM | 97.2 µM | > 78.5 µM | > 100 µM | > 100 µM | > 100 µM | > 100 µM | – | > 100 µM | > 47.8 µM | 22.6 µM | 30.9 µM | 51.1 µM | > 100 µM
14 | COc1cc(CN(C)N2C(=O)c3cccc4cc([N+](=O)[O-])cc(c34)C2=O)cc(OC)c1OC | > 100 µM | – | 51.9 µM | > 100 µM | > 100 µM | – | – | > 100 µM | > 100 µM | > 100 µM | – | > 100 µM | > 100 µM | > 100 µM | > 100 µM | > 100 µM | > 100 µM | –
15 | CC1NC(=O)c2c(-c3ccccc3)nn(-c3ccccc3)c2NC1=O (stereo not given) | > 100 µM | > 100 µM | > 100 µM | > 100 µM | > 100 µM | > 100 µM | > 100 µM | > 100 µM | > 100 µM | > 100 µM | > 100 µM | > 100 µM | > 100 µM | > 100 µM | > 100 µM | – | > 100 µM | > 100 µM
16 | NC(=S)Nc1c(S(N)(=O)=O)cc(S(N)(=O)=O)c(Cl)c1Cl | > 100 µM | > 100 µM | > 100 µM | > 100 µM | > 100 µM | > 100 µM | > 100 µM | > 100 µM | > 100 µM | > 100 µM | > 100 µM | – | > 100 µM | > 100 µM | > 100 µM | > 100 µM | > 100 µM | > 100 µM
17 | COc1cc2c(OC)c3cc(C)oc(=O)c3c(O)c2c(O)c1-c1c(OC)cc2c(OC)c3cc(C)oc(=O)c3c(O)c2c1O | 51.1 µM | 66.8 µM | 30.1 µM | 33 µM | 55.3 µM | 62.3 µM | 28 µM | 35.4 µM | 30 µM | 65.1 µM | 42.6 µM | – | 40.9 µM | 35.7 µM | 45.2 µM | 33.9 µM | 35.8 µM | 38.9 µM
18 | CCOC(=O)C(=NN(C)c1ncccc1N)C(=O)OCC | 39.7 µM | > 100 µM | > 100 µM | > 100 µM | > 100 µM | – | 65.4 µM | > 100 µM | > 100 µM | > 100 µM | > 100 µM | > 100 µM | – | > 100 µM | 64.5 µM | 84.2 µM | > 100 µM | > 100 µM
19 | C/C(CC(O)(C(F)(F)Cl)C(F)(F)Cl)=N\Nc1ccccc1 | > 100 µM | 95.3 µM | – | 78.9 µM | > 100 µM | 93.8 µM | > 100 µM | > 100 µM | > 100 µM | > 100 µM | – | > 100 µM | > 100 µM | > 100 µM | – | 62.5 µM | 36.9 µM | > 100 µM
20 | O=C(OC1C#CCSCC#C/C=C\1)c1cnc2ccccc2n1 (stereo not given) | > 100 µM | > 100 µM | > 100 µM | > 100 µM | > 100 µM | > 100 µM | > 100 µM | > 100 µM | > 100 µM | > 100 µM | > 100 µM | 53.1 µM | > 100 µM | > 100 µM | > 100 µM | > 100 µM | – | –
21 | CCOC(=O)C(=O)N=Nc1c(O)[nH]c2ccccc12 | > 100 µM | > 100 µM | > 100 µM | > 100 µM | – | > 100 µM | > 100 µM | > 100 µM | > 100 µM | > 100 µM | > 100 µM | > 100 µM | > 100 µM | > 100 µM | > 100 µM | – | > 100 µM | > 100 µM

Source: PubChem BioAssay (NCI)
